Our source for the growth and Activity values is ChEMBL document CHEMBL3112546, “Synthetic α-(aminomethyl)-γ-butyrolactones and their anti-pancreatic cancer activities” (2013).

Assay [1] can be described thus: Antiproliferative activity against human BxPC3 cells assessed as cell growth at 10 uM after 72 hrs by CellTitre assay relative to control. The class given is functional. The following applies: BXPC-3, 72 h, read-out: Activity.
Assay [2] in a line: Antiproliferative activity against human MIAPaCa2 cells assessed as cell growth at 10 uM after 72 hrs by CellTitre assay relative to control. Type of assay: functional. The following applies: MIA PaCa-2, 72 h, read-out: Activity.
A short description of assay [3]: Antiproliferative activity against human PANC1 cells assessed as cell growth at 10 uM after 72 hrs by CellTitre assay relative to control. Type of assay: functional. Particulars: PANC-1, 72 h, read-out: Activity.
In assay [4] the test system is PANC-1. Put plainly: Antiproliferative activity against human PANC1 cells assessed as cell growth at >100 uM after 72 hrs by CellTitre assay relative to control. The class given is functional, cell-based.

Where a name gives a salt, the structure may show the parent alone. The source made the active and inactive calls. No cut-off for these calls is given here.

Turning to `C=C1C(=O)O[C@@H]2[C@H]3O[C@]3(C)CC/C=C(\C)CC[C@@H]12`, the growth at 10 µM in assay [1] stood at 6%; in assay [2], 3%; in assay [3], 12%.

Turning to `C=C1C(=O)O[C@@H](c2ccccc2)[C@@H]1c1ccccc1` (racemic), the growth at 10 µM in assay [1], in assay [2] and in assay [3] was 1% in each case.

For `C=C1C(=O)O[C@H](c2ccccc2)[C@@H]1c1ccccc1` (racemic), the growth at 10 µM amounted to 8% in assay [1], 3% in assay [2] and 38% in assay [3].

As for `CN(C)C[C@H]1C(=O)O[C@@H](c2ccccc2)[C@@H]1c1ccccc1` (racemic), the figures for the growth at 10 µM in assay [1], in assay [2] and in assay [3] were 0%, 1% and 0%, respectively.

In the case of `CN(C)C[C@@H]1C(=O)O[C@H](c2ccccc2)[C@@H]1c1ccccc1` (racemic), the growth at 10 µM in assay [1] worked out at 1%; in assay [2], 9%; in assay [3] it was 30%.

In the case of `CCN(CC)C[C@H]1C(=O)O[C@@H](c2ccccc2)[C@@H]1c1ccccc1` (racemic), the growth at 10 µM came to 0% in assay [1], 1% in assay [2] and 1% in assay [3].

In the case of `CCN(CC)C[C@@H]1C(=O)O[C@H](c2ccccc2)[C@@H]1c1ccccc1` (racemic), the growth at 10 µM in assay [1] is 1%; in assay [2] it was 17%; in assay [3], 42%.

Turning to `O=C1O[C@@H](c2ccccc2)[C@H](c2ccccc2)[C@H]1CN1CCCC1` (racemic), the growth at 10 µM in assay [1] turned out to be 0%; in assay [2], 1%; in assay [3], 3%.

In the case of `O=C1O[C@H](c2ccccc2)[C@H](c2ccccc2)[C@@H]1CN1CCCC1` (racemic), the growth at 10 µM stood at 0% in assay [1], 17% in assay [2] and 11% in assay [3].

On to `O=C1O[C@@H](c2ccccc2)[C@H](c2ccccc2)[C@H]1CN1CCCCC1` (racemic), for which the growth at 10 µM in assay [1], in assay [2] and in assay [3] was 1% in each case.

`O=C1O[C@H](c2ccccc2)[C@H](c2ccccc2)[C@@H]1CN1CCCCC1` (racemic): the growth at 10 µM in assay [1] is 3%; in assay [2], 11%; in assay [3], 8%.

Take `O=C1O[C@@H](c2ccccc2)[C@H](c2ccccc2)[C@H]1CN1CCOCC1` (racemic): the growth at 10 µM in assay [1] was 9%; in assay [2], 10%; in assay [3] it was 16%.

On to `O=C1O[C@H](c2ccccc2)[C@H](c2ccccc2)[C@@H]1CN1CCOCC1` (racemic), for which the growth at 10 µM in assay [1] came out at 6%; in assay [2], 13%; in assay [3], 19%.

Take `O=C1O[C@@H](c2ccccc2)[C@H](c2ccccc2)[C@H]1CN(Cc1ccccc1)Cc1ccccc1` (racemic): the growth at 10 µM is 50% in assay [1] and 35% in assay [2]. For the same molecule, the outcome in assay [4] was inactive.

As for `O=C1O[C@H](c2ccccc2)[C@H](c2ccccc2)[C@@H]1CN(Cc1ccccc1)Cc1ccccc1` (racemic), the results for the growth at 10 µM in assay [1], in assay [2] and in assay [3] were 34%, 33% and 75%, respectively.

Consider `O=C1O[C@@H](c2ccccc2)[C@H](c2ccccc2)[C@H]1CN(Cc1ccccc1)C(=O)c1ccccc1` (racemic), for which the results for the growth at 10 µM in assay [1] and in assay [2] were 81% and 92%, respectively. For the same molecule, in assay [4], the outcome was inactive.

Regarding `C/C1=C\CC[C@@]2(C)O[C@@H]2[C@H]2OC(=O)[C@@H](CN(C)C)[C@@H]2CC1` [(DIMETHYLAMINO)PARTHENOLIDE FUMARIC ACID SALT], the figures for the growth at 10 µM in assay [1], in assay [2] and in assay [3] were 7%, 2% and 17%, respectively.
